Consider nine molecules from ChEMBL document CHEMBL1128327, “L-O-(2-malonyl)tyrosine: a new phosphotyrosyl mimetic for the preparation of Src homology 2 domain inhibitory peptides” (J Med Chem, 1995).

Holding throughout (format): functional
For assay [1], the target named is T1, Tyrosine-protein phosphatase non-receptor type 11 (Homo sapiens, UniProt Q06124).
T1 sequence (Q06124 whole entry): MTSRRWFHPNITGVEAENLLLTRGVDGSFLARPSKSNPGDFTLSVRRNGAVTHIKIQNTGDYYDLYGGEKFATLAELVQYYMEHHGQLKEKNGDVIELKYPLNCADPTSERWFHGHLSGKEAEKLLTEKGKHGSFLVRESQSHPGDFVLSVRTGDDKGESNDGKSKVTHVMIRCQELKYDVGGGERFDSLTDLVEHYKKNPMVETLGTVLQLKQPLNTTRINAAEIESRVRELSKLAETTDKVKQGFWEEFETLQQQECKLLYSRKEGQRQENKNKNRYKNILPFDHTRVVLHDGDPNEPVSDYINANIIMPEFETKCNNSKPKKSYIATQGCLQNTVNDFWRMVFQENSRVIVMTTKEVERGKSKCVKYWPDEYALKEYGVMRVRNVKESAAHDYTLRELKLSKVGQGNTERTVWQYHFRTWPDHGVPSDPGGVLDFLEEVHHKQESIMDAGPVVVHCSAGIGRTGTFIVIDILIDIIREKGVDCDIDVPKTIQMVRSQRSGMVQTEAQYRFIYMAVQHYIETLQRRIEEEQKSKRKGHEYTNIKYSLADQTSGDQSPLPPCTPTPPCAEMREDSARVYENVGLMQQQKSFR
Kind of assay: Inhibitory activity against SH2 domain of SH-PTP2 (N-terminal) binding.

The nature of assay [2]: Inhibitory activity against SH2 domain of PI3-kinase p85.
The target of assay [3] is Proto-oncogene tyrosine-protein kinase Src (Homo sapiens, UniProt P12931). Kind of assay: Inhibitory activity against Src protein tyrosine kinase SH2 domain.
Assay [4] addresses Growth factor receptor-bound protein 2 (Homo sapiens, UniProt P62993). Kind of assay: Inhibition of binding to Growth factor receptor bound protein 2 SH2 domain.

SMILES strings stand for the structures. Square brackets hold non-standard residues; d marks the D form. Peptide text beside a SMILES is read from it. * marks the point of attachment. pY = N[C@@H](Cc1ccc(OP(=O)(O)O)cc1)C(=O)O; X1 = O=C(O)C(C(=O)O)*

Proto-oncogene tyrosine-protein kinase Src, sequence (P12931 2-536 limits assumed): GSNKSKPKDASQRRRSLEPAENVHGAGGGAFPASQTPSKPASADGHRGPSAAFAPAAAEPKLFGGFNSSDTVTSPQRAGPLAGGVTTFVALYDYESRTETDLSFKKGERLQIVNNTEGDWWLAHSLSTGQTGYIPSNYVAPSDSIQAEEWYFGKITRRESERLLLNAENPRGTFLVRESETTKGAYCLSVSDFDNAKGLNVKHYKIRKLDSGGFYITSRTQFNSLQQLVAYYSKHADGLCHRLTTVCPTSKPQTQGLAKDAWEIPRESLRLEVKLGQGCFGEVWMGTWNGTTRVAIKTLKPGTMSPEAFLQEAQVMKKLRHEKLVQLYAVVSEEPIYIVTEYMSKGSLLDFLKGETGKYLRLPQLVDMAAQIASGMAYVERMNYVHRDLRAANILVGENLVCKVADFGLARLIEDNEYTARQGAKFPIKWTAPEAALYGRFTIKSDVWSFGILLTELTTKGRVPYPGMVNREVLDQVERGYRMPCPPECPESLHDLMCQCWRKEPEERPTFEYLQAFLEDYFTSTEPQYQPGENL
Growth factor receptor-bound protein 2, sequence (P62993 whole entry, the tested form may be a part): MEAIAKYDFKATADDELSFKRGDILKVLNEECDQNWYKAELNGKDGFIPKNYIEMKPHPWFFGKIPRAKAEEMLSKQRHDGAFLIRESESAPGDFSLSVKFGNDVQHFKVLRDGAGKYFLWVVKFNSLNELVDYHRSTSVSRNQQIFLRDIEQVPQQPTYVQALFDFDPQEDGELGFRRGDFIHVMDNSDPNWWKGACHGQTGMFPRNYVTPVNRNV

For the molecule `CC[C@H](C)[C@H](NC(=O)[C@H](Cc1ccc(OC(C(=O)O)C(=O)O)cc1)NC(=O)[C@H](CC(N)=O)NC(=O)[C@H](CC(C)C)NC(C)=O)C(=O)N[C@@H](CC(=O)O)C(=O)N[C@@H](CC(C)C)C(=O)N[C@@H](CC(=O)O)C(=O)N[C@@H](CC(C)C)C(=O)N[C@H](C(N)=O)C(C)C` (Ac-LNY(X1)IDLDLV-NH2), the IC50 in assay [1] is 22 µM. For the molecule `CSCC[C@H](NC(=O)[C@@H]1CCCN1C(=O)[C@@H](NC(=O)[C@H](Cc1ccc(OC(C(=O)O)C(=O)O)cc1)NC(=O)[C@H](CC(=O)O)NC(C)=O)C(C)C)C(=O)N[C@@H](CC(C)C)C(N)=O` (Ac-DY(X1)VPML-NH2), in assay [2], the IC50 came to 14.2 µM. Regarding `CC[C@H](C)[C@H](NC(=O)[C@H](CCC(=O)O)NC(=O)[C@H](CCC(=O)O)NC(=O)[C@H](Cc1ccc(OP(=O)(O)O)cc1)NC(=O)[C@H](CCC(N)=O)NC(C)=O)C(=O)N1CCC[C@H]1C(N)=O`, in assay [3], inhibition was half-maximal at 3.2 µM (IC50). Regarding `CC[C@H](C)[C@H](NC(=O)[C@H](CCC(=O)O)NC(=O)[C@H](Cc1ccc(OC(C(=O)O)C(=O)O)cc1)NC(=O)[C@H](Cc1ccc(OC(C(=O)O)C(=O)O)cc1)NC(=O)[C@H](CCC(N)=O)NC(C)=O)C(=O)N1CCC[C@H]1C(N)=O`, the half-inhibitory concentration (IC50) in assay [3] amounted to 22.8 µM. `CC[C@H](C)[C@H](NC(=O)[C@H](CC(N)=O)NC(=O)[C@@H](NC(=O)[C@H](Cc1ccc(OP(=O)(O)O)cc1)NC(=O)[C@H](CC(N)=O)NC(C)=O)C(C)C)C(=O)N[C@@H](CCC(=O)O)C(N)=O` (Ac-N[pY]VNIE-NH2) had an IC50 in assay [4] of 0.9 µM. As for `CSCC[C@H](NC(=O)[C@@H]1CCCN1C(=O)[C@@H](NC(=O)[C@H](Cc1ccc(OP(=O)(O)O)cc1)NC(=O)[C@H](CC(=O)O)NC(C)=O)C(C)C)C(=O)N[C@@H](CC(C)C)C(N)=O` (Ac-D[pY]VPML-NH2), in assay [2], the IC50 came to 0.15 µM. Regarding `CC[C@H](C)[C@H](NC(=O)[C@H](Cc1ccc(OP(=O)(O)O)cc1)NC(=O)[C@H](CC(N)=O)NC(=O)[C@H](CC(C)C)NC(C)=O)C(=O)N[C@@H](CC(=O)O)C(=O)N[C@@H](CC(C)C)C(=O)N[C@@H](CC(=O)O)C(=O)N[C@@H](CC(C)C)C(=O)N[C@H](C(N)=O)C(C)C` (Ac-LN[pY]IDLDLV-NH2), in assay [1], the IC50 came out at 1.54 µM. In assay [3], `CC[C@H](C)[C@H](NC(=O)[C@H](CCC(=O)O)NC(=O)[C@H](CCC(=O)O)NC(=O)[C@H](Cc1ccc(OC(C(=O)O)C(=O)O)cc1)NC(=O)[C@H](CCC(N)=O)NC(C)=O)C(=O)N1CCC[C@H]1C(N)=O` displayed an IC50 of 25 µM. In assay [4], `CC[C@H](C)[C@H](NC(=O)[C@H](CC(N)=O)NC(=O)[C@@H](NC(=O)[C@H](Cc1ccc(OC(C(=O)O)C(=O)O)cc1)NC(=O)[C@H](CC(N)=O)NC(C)=O)C(C)C)C(=O)N[C@@H](CCC(=O)O)C(N)=O` (Ac-NY(X1)VNIE-NH2) displayed an IC50 of 120 µM.

One may read the IC50 as the midpoint of a concentration-inhibition curve.
